Earlier results as cited in US9061052B2, “Aqueous extract of tobacco leaves, its uses in the treatment of dependence” (NFL BIOSCIENCE, priority 2006, dated 2015).

System: tobacco dependence
Settings: in vivo

For `CC(NC(C)(C)C)C(=O)c1cccc(Cl)c1` (stereo not shown) [Zyban, bupropion], the Adverse effects is listed as “dry mouth sensation, insomnia and dizziness”.
